Test results: US20220226357A1, “METHODS FOR TREATING NEURODEGENERATIVE DISORDERS” (THOMAS JEFFERSON UNIVERSITY, priority 2019, published 2022)
“Also recorded” adds a separate entry of the source.

Experiments:
[1] = tested on: AAV-A53T α-synuclein rat model; experiment: Size of α-synuclein-positive aggregates in the striatum; assay type: in vivo; conditions: for maximum aggregate size measured: striatum
Text: Fixed tissue blocks were immersed in 30% sucrose for cryoprotection and sectioned frozen on a sliding microtome (30 μm section thickness for striatal sections; 40 μm section thickness for SN sections). Sections through the rostro-caudal extent of the SN were collected and every sixth section from the SN was processed for tyrosine hydroxylase (TH) immunohistochemistry to be used for stereological cell counting. Three striatal sections from approximately the level of the decussation of the anterior commissure in each case were processed for α-synuclein immunohistochemistry. For immunohistochemistry, sections were washed and permeabilized with PBS containing 0.2% Triton X-100. Endogenous peroxidase activity was quenched using 3% hydrogen peroxide in PBS containing 0.2% Triton X-100. Sections were then blocked in PBS/triton X-100 containing 10% normal goat serum and 2% BSA, followed by primary antibody incubation (TH (rabbit anti-TH, 1:2,000, Pel-Freez); α-synuclein (mouse anti-α-synuclein clone 211; 1:2000, Millipore) overnight at 4° C. The following day, sections were washed in PBS and incubated in biotinylated secondary antibody (goat-anti-rabbit 1:4000 for TH; goat-anti-mouse 1:2000 for α-synuclein 1:2000, VECTOR Laboratories), followed by additional washes and incubation in avidin biotin complex (VECTASTAIN Elite ABC system, VECTOR Laboratories). The reaction product was visualized with 3,3′-diaminobenzidine (DAB) (Immpact DAB, VECTOR Laboratories). Sections were then mounted, dehydrated, cleared and coverslipped. Sections stained for visualization of TH and to be used for stereological cell counting were counterstained with cresyl violet prior to coverslipping. […] Slides were coded and analyzed blindly. […] Cells were then counted at high power (100×) using a counting frame measuring 60 μm^2. […] This process was repeated for each section in the series for a given animal, and a total of 7-8 sections/animal were analyzed. Nissl-stained cells were counted concurrently in the same sections using the same sampling parameters. […]
Immunoblotting for α-synuclein expression was performed using the Wes western blot system (ProteinSimple). […] The sizes of α-synuclein-positive swelling/aggregates were measured in 3 fields (one medial, one central and one lateral) from 1 coronal section (at the approximate level of the decussation of the anterior commissure). Photographs were captured using a 40× objective on a Nikon Eclipse Ni microscope and α-synuclein-positive structures with an area >5 μm2 were considered as aggregates and were measured using Nikon MS Elements AR software. Data are presented as the distribution of aggregate sizes in the three striatal regions measured.

[2] = tested on: differentiated SH-SY5Y cells; experiment: Uptake of GFP-α-Syn from conditioned medium; assay type: cell-based; conditions: 100 μM GM1, 24 hrs, conditioned medium of MN9D cells expressing GFP-tagged human WT α-Syn
Method: It has recently become appreciated that cell-to-cell transfer of α-Syn may be an important factor in the progression of synucelinopathies. Cell-to-cell transfer of α-Syn can occur as free α-Syn or as α-Sy-containing exosomes. Herein, a preliminary study was conducted to assess the extent to which GM1 can influence α-Syn release and/or uptake by neighboring cells. MIN9D dopaminergic cells stably expressing human WT α-Syn tagged with GFP were cultured to ˜90% confluency and shifted to serum free media for 48 hours to generate conditioned medium (CM), which was collected, spun at 1000 rpm for 10 minutes and filtered through a sterile […] filter. Normal SH-SY5Y cells (ATCC) were plated in 8 well chamber slides and differentiated in 10 μM retinoic acid for 7 days. Sterile CM or regular medium were used to replace 50% of the medium in each well. The cells were grown in the CM for 24 hours in presence or absence of 100 μM GM1, fixed in 4% paraformaldehyde for 10 minutes, and processed for enhanced visualization of GFP using GFP immunofluorescence.

[3] = delayed start GM1 (3 weeks after AAV-A53T)
[4] = early start GM1 (24 hours after AAV-A53T)

GM1 ganglioside
size distribution of striatal α-synuclein-positive aggregates, GM1 vs saline [1, 3]: greater numbers of larger sized aggregates in the saline-treated group compared to the GM1 group
maximum aggregate size measured [1, 3]: 29.3 μm^2
size distribution of striatal α-synuclein-positive aggregates, GM1 vs saline [1, 4]: larger numbers of smaller sized aggregates and fewer larger sized aggregates
maximum aggregate size measured [1, 4]: 28.8 μm^2
uptake of GFP-α-Syn into SH-SY5Y cells [2]: reduced levels of GFP-α-Syn; also recorded: reduced uptake of GFP-α-Syn
